From ChEMBL document CHEMBL1133582, “Water-soluble phosphate prodrugs of 1-propargyl-8-styrylxanthine derivatives, A(2A)-selective adenosine receptor antagonists” (J Med Chem, 2000)

Tests used:
Adenosine receptor A1 [1] = target: T1, Adenosine receptor A1 (Rattus norvegicus, UniProt P25099); experiment: Binding affinity against adenosine A1 receptor of rat brain cortical membranes using [3H]CHA
T1 sequence (P25099 whole entry): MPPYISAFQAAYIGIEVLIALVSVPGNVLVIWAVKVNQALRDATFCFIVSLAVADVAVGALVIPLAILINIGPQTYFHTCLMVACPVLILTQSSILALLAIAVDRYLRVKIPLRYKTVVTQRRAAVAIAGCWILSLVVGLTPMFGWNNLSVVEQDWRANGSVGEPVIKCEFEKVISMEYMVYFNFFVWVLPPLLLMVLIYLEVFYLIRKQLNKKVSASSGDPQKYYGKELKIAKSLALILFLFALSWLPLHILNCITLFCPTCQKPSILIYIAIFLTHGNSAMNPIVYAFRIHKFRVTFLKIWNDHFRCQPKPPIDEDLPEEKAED

Adenosine receptor A2a [2] = target: Adenosine receptor A2a (Rattus norvegicus, UniProt P30543); experiment: Binding affinity against adenosine A2A receptor of rat brain striatal membranes using [3H]CGS-21680
Adenosine receptor A2a (Rattus norvegicus, UniProt P30543), sequence (P30543 whole entry): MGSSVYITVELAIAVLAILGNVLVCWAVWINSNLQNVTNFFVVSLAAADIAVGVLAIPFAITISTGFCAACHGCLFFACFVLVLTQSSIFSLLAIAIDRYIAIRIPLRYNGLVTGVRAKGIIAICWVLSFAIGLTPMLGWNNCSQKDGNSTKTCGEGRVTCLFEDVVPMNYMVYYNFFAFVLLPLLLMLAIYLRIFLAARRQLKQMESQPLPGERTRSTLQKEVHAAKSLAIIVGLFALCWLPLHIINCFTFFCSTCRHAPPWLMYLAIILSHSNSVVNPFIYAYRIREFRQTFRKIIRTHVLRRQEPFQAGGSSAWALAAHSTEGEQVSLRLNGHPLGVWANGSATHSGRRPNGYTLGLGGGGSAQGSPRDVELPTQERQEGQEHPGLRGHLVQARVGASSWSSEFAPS

Adenosine receptor A2b = target: T2, Adenosine receptor A2b (Homo sapiens, UniProt P29275); experiment: Inhibition of NECA-induced stimulation of adenylate cyclase at human adenosine A2B receptor; format: functional
T2 sequence (P29275 whole entry): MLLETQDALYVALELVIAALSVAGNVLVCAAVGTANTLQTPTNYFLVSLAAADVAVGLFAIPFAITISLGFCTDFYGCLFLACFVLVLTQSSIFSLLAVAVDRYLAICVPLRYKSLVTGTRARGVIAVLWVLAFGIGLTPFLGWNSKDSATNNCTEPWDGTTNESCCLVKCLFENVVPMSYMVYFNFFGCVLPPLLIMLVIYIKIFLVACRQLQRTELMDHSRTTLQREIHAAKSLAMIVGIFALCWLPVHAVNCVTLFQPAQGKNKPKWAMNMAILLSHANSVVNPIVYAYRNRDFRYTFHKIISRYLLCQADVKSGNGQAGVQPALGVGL

Adenosine receptor A1 [3] = target: T3, Adenosine receptor A1 (Homo sapiens, UniProt P30542); experiment: Binding affinity against human adenosine A1 receptor using [3H]-CCPA (95% confidence)
T3 sequence (P30542 whole entry): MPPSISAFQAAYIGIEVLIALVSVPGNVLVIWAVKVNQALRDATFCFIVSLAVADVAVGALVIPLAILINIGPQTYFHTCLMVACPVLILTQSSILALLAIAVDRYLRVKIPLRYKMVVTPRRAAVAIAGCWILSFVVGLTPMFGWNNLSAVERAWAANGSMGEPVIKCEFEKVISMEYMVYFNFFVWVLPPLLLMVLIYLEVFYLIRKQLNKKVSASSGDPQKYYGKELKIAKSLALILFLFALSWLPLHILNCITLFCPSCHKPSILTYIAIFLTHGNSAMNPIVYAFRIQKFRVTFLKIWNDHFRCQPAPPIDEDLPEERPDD

Adenosine receptor A3 = target: T4, Adenosine receptor A3 (Homo sapiens, UniProt P0DMS8); experiment: Binding affinity against human adenosine A3 receptor in CHO cell membranes using [3H]NECA
T4 sequence (P0DMS8 whole entry): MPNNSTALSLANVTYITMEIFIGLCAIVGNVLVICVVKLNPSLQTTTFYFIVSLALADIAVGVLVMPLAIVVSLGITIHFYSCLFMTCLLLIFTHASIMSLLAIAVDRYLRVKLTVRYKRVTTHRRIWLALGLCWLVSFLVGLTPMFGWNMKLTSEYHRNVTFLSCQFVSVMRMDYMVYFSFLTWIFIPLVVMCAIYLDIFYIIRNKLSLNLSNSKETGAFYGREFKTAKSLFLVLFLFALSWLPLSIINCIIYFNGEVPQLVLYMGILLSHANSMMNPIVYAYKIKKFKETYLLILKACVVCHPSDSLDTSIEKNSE

Adenosine receptor A2a [4] = target: T5, Adenosine receptor A2a (Homo sapiens, UniProt P29274)
T5 sequence (P29274 whole entry): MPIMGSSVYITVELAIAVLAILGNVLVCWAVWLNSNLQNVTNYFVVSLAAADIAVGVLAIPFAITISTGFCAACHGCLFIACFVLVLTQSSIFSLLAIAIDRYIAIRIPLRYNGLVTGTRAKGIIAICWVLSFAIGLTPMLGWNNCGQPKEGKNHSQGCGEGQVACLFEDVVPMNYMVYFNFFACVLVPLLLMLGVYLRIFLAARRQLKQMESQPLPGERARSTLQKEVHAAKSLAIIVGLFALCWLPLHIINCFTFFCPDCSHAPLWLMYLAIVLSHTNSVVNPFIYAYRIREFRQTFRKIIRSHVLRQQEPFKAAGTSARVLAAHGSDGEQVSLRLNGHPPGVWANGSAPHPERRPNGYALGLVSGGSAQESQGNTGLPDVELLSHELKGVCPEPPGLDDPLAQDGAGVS
Description: Binding affinity against human adenosine A2A receptor using [3H]CGS-21680 (95% confidence)

Adenosine receptor A2a [5] = target: T5, Adenosine receptor A2a; remark: listed apart in the source
Description: Binding affinity against human post-mortem brain adenosine A2A receptor using nuclei caudati and [3H]-CGS-21,680

Adenosine receptor A1 [6] = target: T1, Adenosine receptor A1; experiment: Binding affinity against adenosine A1 receptor of rat without and after pre-incubation with alkaline phosphatase

Row | Structure (SMILES) | Ki (Adenosine receptor A1 [1]) [nM] | Ki (Adenosine receptor A2a [2]) [nM] | other results
1 | C#CCn1c(=O)c2c(nc(/C=C/c3cccc(OC)c3)n2C)n(CCO)c1=O | 1040 | 39 | –
2 | C#CCn1c(=O)c2c(nc(/C=C/c3cccc(OC)c3)n2C)n(CCCO)c1=O | 900 | 8 | Ki (Adenosine receptor A2b): > 10 µM; Ki (Adenosine receptor A1 [3]): 2500 nM; Ki (Adenosine receptor A3): > 10 µM; Ki (Adenosine receptor A2a [4]): 5 nM; Ki (Adenosine receptor A2a [5]): 15 nM
3 | C#CCn1c(=O)c2c(nc(/C=C/c3cccc(O)c3)n2C)n(C)c1=O | 940 | 21 | –
4 | C#CCn1c(=O)c2c(nc(/C=C/c3cccc(OC)c3)n2C)n(C)c1=O | 1280 | 12 | –
5 | C#CCn1c(=O)c2c(nc(/C=C/c3cccc(Br)c3)n2C)n(CCCO)c1=O | 625 | 13 | –
6 | C#CCn1c(=O)c2c(nc(/C=C/c3cccc(N)c3)n2C)n(C)c1=O | 1070 | 42 | –
7 | C#CCn1c(=O)c2c(nc(/C=C/c3cccc(OC)c3)n2C)n(CCCOP(=O)(O)O)c1=O | – | – | Ki (Adenosine receptor A1 [6]): 1120 nM
8 | C#CCn1c(=O)c2c(nc(/C=C/c3cccc(Br)c3)n2C)n(C)c1=O | – | – | Ki (Adenosine receptor A2b): > 10 µM; Ki (Adenosine receptor A3): > 10 µM
9 | C#CCn1c(=O)c2c(nc(/C=C/c3cccc(Br)c3)n2C)n(CCO)c1=O | 1280 | 25 | –
